Reference: BindingDB's records for doi:10.1021/acs.jnatprod.0c01182 (Chinese Academy of Sciences, 2021)
pIC50: −log10 of the molar value.

What was measured:
[1] = Reversal of P-gp-mediated multidrug resistance in human KB/VCR cells assessed as potentiation of vincristine-induced antiproliferative activity by measuring vincristine IC50 at 2 uM measured after 72 hrs by CCK8 assay (Rvb = 0.51 uM)
[2] = Reversal of P-gp-mediated multidrug resistance in human KB/VCR cells assessed as potentiation of vincristine-induced antiproliferative activity by measuring vincristine IC50 at 20 uM measured after 72 hrs by CCK8 assay (Rvb = 0.78 uM)

Structure (SMILES) | pIC50 [1] | pIC50 [2]
COc1cc2c(cc1OC)CN(CCc1ccc(-n3nnc(-c4cc(OC)c(OC)cc4NC(=O)c4cc(=O)c5ccccc5o4)n3)cc1)CC2 [Encequidar] | 7.80 | –
CC(=O)O[C@@H]1C[C@@H](C)[C@]23OC(C)(C)[C@H](C[C@H](OC(=O)c4ccccc4)[C@]2(C)[C@H]1OC(C)=O)[C@H]3OC(=O)/C=C/c1ccccc1 | 7.24 | –
CC(=O)O[C@H]1CC[C@@H](C)[C@]23OC(C)(C)[C@H](C[C@H](OC(=O)c4ccccc4)[C@]12C)[C@H]3OC(C)=O | 6.68 | 7.82
CC(=O)O[C@@H]1[C@@H]2[C@@H](OC(C)=O)[C@]3(OC2(C)C)[C@H](C)C[C@@H](OC(C)=O)[C@H](OC(C)=O)[C@@]3(C)[C@@H]1OC(=O)c1ccccc1 | 6.82 | 7.66
CCCCCC(=O)O[C@@H]1[C@@H]2[C@@H](OC(C)=O)[C@]3(OC2(C)C)[C@H](C)C[C@@H](OC(C)=O)[C@H](OC(C)=O)[C@@]3(C)[C@H]1OC(=O)c1ccccc1 | 6.46 | 7.68
CC(=O)OC[C@]12[C@H](OC(C)=O)C(=O)[C@@H]3[C@@H](O)[C@]1(OC3(C)C)[C@H](C)[C@@H](OC(C)=O)[C@H](OC(C)=O)[C@@H]2OC(C)=O | 6.33 | 6.59
CC(=O)O[C@@H]1[C@@H]2[C@@H](OC(C)=O)[C@]3(OC2(C)C)[C@H](C)CC[C@H](OC(C)=O)[C@@]3(C)[C@@H]1OC(=O)c1ccccc1 | 6.70 | > 8.10
CC(=O)O[C@H]1[C@@H]2[C@@H](OC(C)=O)[C@]3(OC2(C)C)[C@H](C)C[C@@H](OC(C)=O)[C@H](OC(C)=O)[C@@]3(C)[C@H]1OC(=O)c1ccccc1 | 6.72 | 7.25
CC(=O)O[C@H]1CC[C@@H](C)[C@]23OC(C)(C)[C@H](C[C@H](OC(=O)c4ccccc4)[C@]12C)[C@H]3OC(=O)c1ccccc1 | 7.00 | –
CC(=O)OC[C@]12[C@H](OC(C)=O)C(=O)[C@@H]3[C@@H](OC(C)=O)[C@]1(OC3(C)C)[C@H](C)C[C@H](O)[C@@H]2OC(C)=O | 6.32 | 6.48
CC(=O)O[C@@H]1[C@@H]2[C@@H](OC(C)=O)[C@]3(OC2(C)C)[C@H](C)C[C@H](OC(=O)/C=C/c2ccccc2)[C@H](OC(C)=O)[C@@]3(C)[C@@H]1OC(=O)c1ccccc1 | 7.00 | 7.59
CC(=O)O[C@H]1[C@@H]2[C@@H](OC(=O)/C=C/c3ccccc3)[C@]3(OC2(C)C)[C@H](C)C[C@H](O)[C@H](OC(C)=O)[C@@]3(C)[C@H]1OC(=O)c1ccccc1 | 7.43 | –
CC(=O)O[C@@H]1[C@@H]2[C@@H](OC(C)=O)[C@]3(OC2(C)C)[C@H](C)CC[C@H](OC(C)=O)[C@@]3(C)[C@H]1OC(=O)c1ccccc1 | 6.62 | 7.47
CC(=O)O[C@H]1[C@@H]2[C@@H](OC(=O)c3cccnc3)[C@]3(OC2(C)C)[C@H](C)C[C@H](OC(C)=O)[C@@H](OC(C)=O)[C@@]3(C)[C@H]1OC(=O)c1ccccc1 | 7.19 | > 8.10
CC(=O)OC[C@]12[C@H](OC(C)=O)C(=O)[C@@H]3[C@@H](O)[C@]1(OC3(C)C)[C@H](C)[C@@H](O)[C@H](OC(C)=O)[C@@H]2OC(C)=O | 6.30 | 6.28
CC(=O)OC[C@]12[C@H](OC(C)=O)C(=O)[C@@H]3[C@@H](OC(C)=O)[C@]1(OC3(C)C)[C@H](C)[C@@H](O)[C@H](OC(C)=O)[C@@H]2OC(C)=O | 6.26 | 6.41
CC(=O)O[C@@H]1[C@H]2[C@H](O)[C@H](OC(=O)c3ccccc3)[C@]3(C)[C@@H](OC(C)=O)[C@H](O)C[C@@H](C)[C@@]13OC2(C)C | 6.37 | 6.51
CC(=O)O[C@H]1[C@@H]2[C@@H](OC(=O)/C=C/c3ccccc3)[C@]3(OC2(C)C)[C@H](C)C[C@@H](OC(C)=O)[C@H](OC(C)=O)[C@@]3(C)[C@H]1OC(=O)c1ccccc1 | 7.00 | > 8.10
CC(=O)O[C@@H]1C[C@@H](C)[C@]23OC(C)(C)[C@H]([C@@H](O)[C@H](OC(=O)c4ccccc4)[C@@]2(C)[C@H]1OC(C)=O)[C@H]3OC(=O)/C=C/c1ccccc1 | 7.32 | –
